Test results as given in paper PMC3329801 (Nature Chemical Biology, 2011).

Tested on: influenza virus NS1 protein levels
Assay type: cell-based

| SMILES | viral protein levels in REDD1−/− cells (autophagy inhibitor treatment, Fig. S13) | viral protein levels in REDD1+/+ and REDD1−/− cells | influenza virus NS1 protein levels (Fig. S7) |
| --- | --- | --- | --- |
| CCN(CC)CCCC(C)Nc1ccnc2cc(Cl)ccc12 (stereo not drawn) [chloroquine] | did not affect viral protein levels | – | – |
| CO[C@H]1C[C@@H]2CC[C@@H](C)[C@@](O)(O2)C(=O)C(=O)N2CCCC[C@H]2C(=O)O[C@H]([C@H](C)C[C@@H]2CC[C@@H](O)[C@H](OC)C2)CC(=O)[C@H](C)/C=C(\C)[C@@H](O)[C@@H](OC)C(=O)[C@H](C)C[C@H](C)/C=C/C=C/C=C/1C [rapamycin] | – | down-regulated viral protein levels | reduced influenza virus NS1 protein levels |
